In patent publication US20040077540A1, “Compositions and methods for modulating physiology of epithelial junctional adhesion molecules for enhanced mucosal delivery of therapeutic compounds” (Nastech Pharmaceutical Company Inc., priority 2002, published 2004):
Where two headings read alike, the source gives them in different places. Where a SMILES comes first, the peptide text is derived from it. Where no end group is shown, it is not given here.

Tests used:
[1] = MTT assay, viability of mucosal epithelial tissue; type: cell-based; set-up: concentration or dose not given beside the values; details: human, EpiAirway™ units (mucosal epithelial tissue)
Experimental: MTT is a cell-permeable tetrazolium salt which is reduced by mitochondrial dehydrogenase activity to an insoluble colored formazan by viable cells with intact mitochondrial function or by nonmitochondrial NAD(P)H dehydrogenase activity from cells capable of generating a respiratory burst. […] We have employed a MTT reagent kit prepared by MatTek Corp for their units in order to assess viability.
A. The MTT reagent is supplied as a concentrate and is diluted into a proprietary DMEM-based diluent on the day viability is to be assayed (typically the afternoon of the day in which permeation kinetics and TER were determined in the morning). The final MTT concentration is 1 mg/mL
B. The final MTT solution is added to wells of a 24-well microplate at a volume of 300 μL per well. As has been noted above, this volume is sufficient to contact the membranes of the EpiAirway™ units but imposes no significant positive hydrostatic pressure on the cells.
C. The units are removed from the 24-well plate in which they were placed after TER measurements, and after removing any excess liquid from the exterior surface of the units, they are transferred to the plate containing MTT reagent. The units in the plate are then placed in an incubator at 37° C. in an atmosphere of 5% CO2 in air for 3 hours.
D. At the end of the 3-hour incubation, the units containing viable cells will have turned visibly purple. The insoluble formazan must be extracted from the cells in their units to quantitate the extent of MTT reduction. Extraction of the formazan is accomplished by transferring the units to a 24-well microplate containing 2 mL extractant solution per well, after removing excess liquid from the exterior surface of the units as before. This volume is sufficient to completely cover both the membrane and the apical surface of the units. Extraction is allowed to proceed overnight at room temperature in a light-tight chamber. MTT extractants traditionally contain high concentrations of detergent, and destroy the cells.
E. At the end of the extraction, the fluid from within each unit and the fluid in its surrounding well are combined and transferred to a tube for subsequent aliquotting into a 96-well microplate (200 μL aliquots are optimal) and determination of absorbance at 570 nm on a VMax multiwell microplate spectrophotometer. […] The “blank” for the determination of formazan absorbance is a 200 μL aliquot of extractant to which no unit had been exposed. This absorbance value is assumed to constitute zero viability.
F. Two units from each kit of 24 EpiAirway™ units are left untreated during determination of permeation kinetics and TER. These units are employed as the positive control for 100% cell viability. In all the studies conducted, there was no statistically significant difference in the viability of the cells in these untreated cells compared to viability of cells in control units which had been sham treated for permeation kinetics and on which TER determinations had been performed. The absorbance of all units treated with test formulations is assumed to be linearly proportional to the percent viability of the cells in the units at the time of the incubation with MTT. It should be noted that this assay is carried out typically no sooner than four hours after introduction of the test material to the apical surface, and subsequent to rinsing of the apical surface of the units during TER determination.
The MTT assays were performed using MTT-100, MatTek kits. […] of the MTT solution was added into each well. Tissue inserts were gently rinsed with clean PBS and placed in the MTT solution. The samples were incubated at 37° C. for 3 hours. After incubation the cell culture inserts were then immersed with 2.0 mL of the extractant solution per well to completely cover each insert. The extraction plate was covered and sealed to reduce evaporation. Extraction proceeds overnight at RT in the dark. […]

[2] = tested on: EpiAirway™ units (mucosal epithelial tissue); test: LDH assay, cytolysis of EpiAirway units; type: cell-based
Description: While measurement of mitochondrial reductase activity by MTT reduction is a sensitive probe of cell viability, the assay necessarily destroys the cells and therefore can be carried out only at the end of each study. When cells undergo necrotic lysis, their cytotosolic contents are spilled into the surrounding medium, and cytosolic enzymes such as lactate dehydrogenase (LDH) can be detected in this medium. An assay for LDH in the medium can be performed on samples of medium removed at each time point of the two-hour determination of permeation kinetics. […] A. The recommended LDH assay for evaluating cytolysis of the EpiAirway™ units is based on conversion of lactate to pyruvate with generation of NADH from NAD. […] The formazan formed from reduction of INT is soluble, so that the entire assay for LDH activity can be carried out in a homogenous aqueous medium containing lactate, NAD, diaphorase, and INT. B. The assay for LDH activity is carried out on 50 μL aliquots from samples of “supernatant” medium surrounding an EpiAirway™ unit and collected at each time point. These samples were either stored for no longer than 24 h in the refrigerator or were thawed after being frozen within a few hours after collection. […] The aliquots are all transferred to a 96 well microplate. C. […] Thus, within experimental error, these sham-treated units show no cytolysis of the epithelial cells over the time course of the permeation kinetics measurements. D. […] This freeze-thaw cycle effectively lyses the cells and releases their cytosolic contents, including LDH, into the supernatant medium. […] E. To each well containing an aliquot of supernatant medium, a 50 μL aliquot of the LDH assay reagent is added. […] F. The reactions are terminated by addition of a “stop” solution of 1 M acetic acid, and within one hour of addition of the stop solution, the absorbance of the plate is determined at 490 nm. G.

[3] = tested on: ciliary beating frequency; details: cited from earlier work
[4] = aqueous solution at physiologic pH; cited from earlier work
aminopeptidases = details: cited from earlier work
[5] = intraduodenal, rats, with 1% (w/v) saline dispersion of polycarbophil vs aqueous solution without polymer; cited from earlier work
[6] = tested on: ciliary function in epithelial cell cultures; details: cited from earlier work
[7] = formulations comprising the permeabilizing peptide, read-out: MTT assay results (viability)
[8] = formulations comprising the permeabilizing peptide

Compound | viability [1, 7] [%] | toxic effects on viability of mucosal epithelial tissue, LDH assay [2, 8] | other results
TGITFKSVT [NP-C] |  |  | viability [1]: > 80%; toxic effects on viability of mucosal epithelial tissue, LDH assay [2]: no significant toxic effects
VKLSCAY [NP-B, VKLSCAY] |  |  | viability [1]: > 80%; toxic effects on viability of mucosal epithelial tissue, LDH assay [2]: no significant toxic effects
AATGLYVDQ [NP-24] | > 80 | no significant toxic effects | 
CCO [ethanol] |  |  | concentration reducing the in vitro ciliary beating frequency [3]: greater than 2%
MTPVNARYEF [NP-28] | > 80 | no significant adverse effects | 
CCN(CC)/[N+]([O-])=N/O.CCNCC [diethylamine/NO] |  |  | rate (time) of NO release [4]: < 3 min
GFSLGLWMEC [NP-42] | > 80 | no significant adverse effects | 
YAGDNIVTAQ [NP-17] |  |  | viability [1]: > 80%; toxic effects on viability of mucosal epithelial tissue, LDH assay [2]: no significant adverse effects
VASGQKREMG [NP-29] |  |  | viability [1]: > 80%; toxic effects on viability of mucosal epithelial tissue, LDH assay [2]: no significant adverse effects
GILRDFYSPL [NP-27] | > 80 | no significant adverse effects | 
VPVSQKYELG [NP-32] | > 80 | no significant adverse effects | 
CC(C)CC(N)B(O)O (centres unmarked) [boro-leucine] |  |  | effectiveness in enzyme inhibition relative to bestatin (aminopeptidases): more than 100 times; effectiveness in enzyme inhibition relative to puromycin (aminopeptidases): more than 1000 times
NCCN(CCN)/[N+]([O-])=N/O [diethylenetriamine/NO] |  |  | rate (time) of NO release [4]: approximately 20 hours
CC(C)[C@H](NC(=O)[C@@H](N)CO)C(=O)N[C@H](C(=O)N[C@@H](CCCNC(=N)N)C(=O)O)[C@@H](C)O [NP-E, SVTR] (H-SVTR-OH) | > 80 | no significant toxic effects | 
NIIQDFYNPL [NP-31] |  |  | viability [1]: > 80%; toxic effects on viability of mucosal epithelial tissue, LDH assay [2]: no significant adverse effects
GSLYGSQIY [NP-23] | > 80 | no significant toxic effects | 
GFSSPRVEW [NP-21] |  |  | viability [1]: > 80%; toxic effects on viability of mucosal epithelial tissue, LDH assay [2]: no significant toxic effects
YLYHYCVVD [NP-26] | > 80 | no significant toxic effects | 
9-desglycinamide, 8-arginine vasopressin [DGAVP] |  |  | increase of bioavailability [5]: 3-5 fold
GVNPTAQSS [NP-22] | > 80 | no significant toxic effects | 
CC[C@H](C)[C@H](NC(=O)[C@H](CCCNC(=N)N)NC(=O)[C@@H](N)C(C)C)C(=O)N1CCC[C@H]1C(=O)O [NP-A, VRIP] (H-VRIP-OH) | > 80 | no significant toxic effects | 
DIYSTLLGLP [NP-41] | > 80 | no significant adverse effects | 
ALCNQFYTP [NP-25] | > 80 | no significant toxic effects | 
VPDSMKFEIG [NP-30] | > 80 | no significant adverse effects | 
EDTGTYTCM [NP-8] |  |  | viability [1]: > 80%; toxic effects on viability of mucosal epithelial tissue, LDH assay [2]: no significant toxic effects
VVPEAQKREM [NP-33] | > 80 | no significant adverse effects | 
2-alkyl-4-hydroxyquinolines [pyo compound] |  |  | concentration producing ciliostasis / inhibiting ciliary motility [6]: 50 µg/mL
CC[C@H](C)[C@H](N)C(=O)N[C@H](C(=O)N[C@@H](C)C(=O)N[C@@H](CO)C(=O)O)[C@@H](C)O [NP-D, ITAS] (H-ITAS-OH) | > 80 | no significant toxic effects | 
NTIIRDFYNP [NP-10] | > 80 | no significant adverse effects | 
